Reference: ChEMBL document CHEMBL4402535, “Ellagic acid a multi-target bioactive compound for drug discovery in CNS? A narrative review” (Eur J Med Chem, 2019)

Columns and labels:
Salmon testes DNA = assay: Binding affinity to salmon DNA isolated from testis using dopamine as substrate in presence of CuCl2; assay type: nucleic-acid assay, Salmonidae
[1] = molecular target: T1, Amyloid-beta precursor protein (Homo sapiens, UniProt P05067); assay: Inhibition of beta amyloid in human SH-SY5Y cells; assay type: cell-based
[2] = molecular target: T1, Amyloid-beta precursor protein; assay: Inhibition of beta amyloid (unknown origin) after 12 to 24 hrs
Acetylcholinesterase = Acetylcholinesterase (Electrophorus electricus, UniProt O42275); assay: Inhibition of electric eel AChE using acetylthiocholine iodide as substrate measured at 1 min intervals for 5 mins by Ellman's method
[3] = Antioxidant activity assessed as DPPH radical scavenging activity after 1 hr; assay type: functional
[4] = Antioxidant activity assessed as DPPH radical scavenging activity; assay type: functional
[5] = molecular target: Acetylcholinesterase (Electrophorus electricus) (UniProt O42275); assay: Inhibition of electric eel AChE using acetylthiocholine iodide as substrate
[6] = molecular target: Cholinesterase (Equus caballus) (UniProt P81908); assay: Inhibition of equine serum BuChE using S-butyrylthiocholine chloride as substrate
[7] = molecular target: T2, Amine oxidase [flavin-containing] A (Homo sapiens, UniProt P21397); assay: Inhibition of MAO-A (unknown origin)
T2 sequence (P21397 whole entry): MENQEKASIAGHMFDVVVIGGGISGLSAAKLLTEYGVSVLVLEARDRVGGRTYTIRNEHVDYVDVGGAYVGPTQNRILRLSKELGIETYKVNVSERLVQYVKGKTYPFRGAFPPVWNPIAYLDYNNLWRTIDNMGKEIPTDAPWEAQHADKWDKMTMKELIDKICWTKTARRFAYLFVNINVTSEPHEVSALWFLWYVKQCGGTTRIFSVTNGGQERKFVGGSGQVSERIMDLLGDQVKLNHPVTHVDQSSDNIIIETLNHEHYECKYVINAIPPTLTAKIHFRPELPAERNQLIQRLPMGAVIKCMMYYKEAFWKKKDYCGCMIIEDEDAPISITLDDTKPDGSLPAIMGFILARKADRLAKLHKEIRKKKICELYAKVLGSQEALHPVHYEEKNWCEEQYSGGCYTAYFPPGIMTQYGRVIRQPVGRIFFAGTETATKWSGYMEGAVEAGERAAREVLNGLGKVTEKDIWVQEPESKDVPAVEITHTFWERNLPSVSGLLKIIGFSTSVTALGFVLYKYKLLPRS

[8] = Antioxidant activity assessed as O2 radical scavenging activity after 1 hr; assay type: functional
[9] = Antioxidant activity assessed as NO radical scavenging activity after 1 hr; assay type: functional

T1 sequence (P05067 whole entry): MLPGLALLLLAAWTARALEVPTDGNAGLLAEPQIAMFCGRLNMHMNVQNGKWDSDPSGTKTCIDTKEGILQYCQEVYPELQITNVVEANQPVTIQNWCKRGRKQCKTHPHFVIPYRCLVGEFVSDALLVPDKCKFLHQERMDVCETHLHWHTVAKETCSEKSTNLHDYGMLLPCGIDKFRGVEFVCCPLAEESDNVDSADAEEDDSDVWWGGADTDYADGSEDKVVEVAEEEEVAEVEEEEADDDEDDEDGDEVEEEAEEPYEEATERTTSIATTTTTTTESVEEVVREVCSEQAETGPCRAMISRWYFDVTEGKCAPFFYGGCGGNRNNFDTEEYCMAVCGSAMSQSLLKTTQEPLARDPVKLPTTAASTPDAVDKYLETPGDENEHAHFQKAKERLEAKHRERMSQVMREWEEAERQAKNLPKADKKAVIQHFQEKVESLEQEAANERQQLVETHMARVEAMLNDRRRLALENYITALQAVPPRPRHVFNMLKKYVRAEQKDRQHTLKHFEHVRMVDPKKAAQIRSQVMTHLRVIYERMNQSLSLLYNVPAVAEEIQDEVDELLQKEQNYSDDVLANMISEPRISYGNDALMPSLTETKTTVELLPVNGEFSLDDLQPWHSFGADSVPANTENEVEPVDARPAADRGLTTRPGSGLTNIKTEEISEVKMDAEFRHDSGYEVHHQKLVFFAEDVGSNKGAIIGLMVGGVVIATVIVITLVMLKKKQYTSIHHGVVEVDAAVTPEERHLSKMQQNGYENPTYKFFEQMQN
Cholinesterase (Equus caballus), sequence (P81908 whole entry): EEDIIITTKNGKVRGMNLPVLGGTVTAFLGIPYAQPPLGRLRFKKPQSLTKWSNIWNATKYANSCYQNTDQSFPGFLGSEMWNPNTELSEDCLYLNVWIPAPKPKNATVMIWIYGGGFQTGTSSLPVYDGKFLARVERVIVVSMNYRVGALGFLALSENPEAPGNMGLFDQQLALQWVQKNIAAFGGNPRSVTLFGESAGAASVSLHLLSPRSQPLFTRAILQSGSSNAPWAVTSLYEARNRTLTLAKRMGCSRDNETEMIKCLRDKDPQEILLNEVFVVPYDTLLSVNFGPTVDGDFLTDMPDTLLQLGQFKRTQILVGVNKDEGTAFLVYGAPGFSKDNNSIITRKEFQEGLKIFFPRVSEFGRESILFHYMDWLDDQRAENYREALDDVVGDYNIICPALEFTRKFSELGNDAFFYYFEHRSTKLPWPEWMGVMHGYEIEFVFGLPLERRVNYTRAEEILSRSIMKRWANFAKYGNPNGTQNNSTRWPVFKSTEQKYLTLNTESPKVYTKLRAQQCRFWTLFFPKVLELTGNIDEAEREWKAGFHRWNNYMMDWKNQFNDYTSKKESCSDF
Acetylcholinesterase (Electrophorus electricus), sequence (O42275 24-633 limits assumed): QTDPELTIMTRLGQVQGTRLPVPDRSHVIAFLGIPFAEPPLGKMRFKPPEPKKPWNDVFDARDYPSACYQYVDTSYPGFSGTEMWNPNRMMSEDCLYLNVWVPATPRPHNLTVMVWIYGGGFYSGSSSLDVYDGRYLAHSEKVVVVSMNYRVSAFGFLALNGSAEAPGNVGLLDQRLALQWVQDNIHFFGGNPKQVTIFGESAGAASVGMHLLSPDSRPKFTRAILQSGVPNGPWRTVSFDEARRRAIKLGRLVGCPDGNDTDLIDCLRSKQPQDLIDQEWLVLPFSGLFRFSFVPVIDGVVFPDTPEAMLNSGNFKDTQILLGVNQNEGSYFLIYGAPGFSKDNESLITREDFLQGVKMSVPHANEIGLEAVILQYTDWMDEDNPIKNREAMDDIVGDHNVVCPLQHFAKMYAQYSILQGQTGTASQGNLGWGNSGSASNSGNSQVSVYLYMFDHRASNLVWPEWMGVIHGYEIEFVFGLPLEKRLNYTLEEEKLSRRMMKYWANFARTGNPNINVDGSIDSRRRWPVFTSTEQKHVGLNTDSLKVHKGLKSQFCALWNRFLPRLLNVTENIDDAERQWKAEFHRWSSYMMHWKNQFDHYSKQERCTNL
Acetylcholinesterase, sequence (O42275 whole entry): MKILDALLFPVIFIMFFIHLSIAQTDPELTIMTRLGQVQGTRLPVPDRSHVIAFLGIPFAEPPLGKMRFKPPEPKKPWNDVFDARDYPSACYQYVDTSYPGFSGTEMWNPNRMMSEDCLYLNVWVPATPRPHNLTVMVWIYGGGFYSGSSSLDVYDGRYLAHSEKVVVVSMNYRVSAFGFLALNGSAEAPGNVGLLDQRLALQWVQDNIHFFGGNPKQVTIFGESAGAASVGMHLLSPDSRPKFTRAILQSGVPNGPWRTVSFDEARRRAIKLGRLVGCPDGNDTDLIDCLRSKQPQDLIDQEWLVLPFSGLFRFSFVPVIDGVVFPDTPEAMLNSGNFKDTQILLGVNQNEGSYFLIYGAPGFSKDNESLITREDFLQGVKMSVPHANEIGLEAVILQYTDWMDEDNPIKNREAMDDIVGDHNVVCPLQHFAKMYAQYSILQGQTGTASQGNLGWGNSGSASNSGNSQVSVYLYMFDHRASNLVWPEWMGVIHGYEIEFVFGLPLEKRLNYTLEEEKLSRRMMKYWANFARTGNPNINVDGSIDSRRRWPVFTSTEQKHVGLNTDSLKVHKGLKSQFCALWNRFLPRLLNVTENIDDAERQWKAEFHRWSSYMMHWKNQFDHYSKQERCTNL

**Q.** For O=c1oc2c(O)c(O)cc3c(=O)oc4c(O)c(O)cc1c4c23 [ELLAGIC ACID], which IC50 (Salmon testes DNA) is on record?
**A.** 1 to 150 µM

**Q.** What about the IC50 [1] of the same molecule?
**A.** 300 µM

**Q.** And the IC50 [2]?
**A.** 100 to 300 µM

**Q.** What about the IC50 (Acetylcholinesterase) of the same molecule?
**A.** 133 µM

**Q.** What about the IC50 [3] of the same molecule?
**A.** 31.1 µM

**Q.** What about the EC50 [4] of the same molecule?
**A.** 6.9 µM

**Q.** And the EC24 [5]?
**A.** 250 µM

**Q.** And the EC16 [6]?
**A.** 250 µM

**Q.** What about the EC50 [7] of the same molecule?
**A.** 1.6 µM

**Q.** And the EC50 [8]?
**A.** 177 µM

**Q.** What about the EC50 [9] of the same molecule?
**A.** 24.2 µM
